The values that follow come from patent US6084072A, “Purified lectin and methods of use” (The Regents of the University of Michigan, priority 1993, dated 2000).

Values joined by “and” are separate entries in the source; they are usually repeats but may differ in a detail not shown here. Equal entries are not always repeated. Where two headings read alike, the source gives them in different places. Some results are limits rather than exact numbers.

Assay [1] relates to normal colonic epithelium. The assay is classed as binding, human. Details: key to Labeling of normal colon in the tissue survey / Staining (global score 0-3+): 4^+: Maximum labeling of the brown reaction product; 0: No staining of the slide compared to control sections; 1^+: trace or weak staining definitely not seen on control slides; 2+3^+: stronger staining, but definitely less than maximal.

Assay [2] relates to mucin purified from the LS174T xenograft. Description: Solid phase enzyme-linked lectin-binding assay. Here is the method:
A solid phase enzyme-linked lectin-binding assay has been developed for ACA to quantitate lectin binding to solubilized glycoconjugates. ACA is more sensitive in the measurement of purified cancer-associated mucin than peanut lectin, and can detect as little as 1 mg of mucin purified from the LS174T xenograft.

Assay [3] has as its system asialo-ovine submaxillary mucin. Description: pH dependence of amaranthin/asialo-ovine submaxillary mucin precipitation. The assay is classed as binding. The settings on record: 80 μg amaranthin, 5 μg asialo-ovine submaxillary mucin, universal buffer. As to the method:
The pH dependence study utilized a 2-fold concentrate of a universal buffer system consisting of sodium citrate (24.6 mM), KH2 PO4 (28.7 mM) sodium barbitol (29.1 mM), boric acid (28.8 mM), and NaCl (209 mM), and was adjusted to the indicated pH values with 0.2 N NaOH or 0.2 N HCl. Water was added to complete the 2-fold dilution and the pH was recorded. Amaranthin and asialo-ovine submaxillary mucin solutions were prepared as concentrated solutions in 0.9% NaCI. A standard precipitation assay with amaranthin (80μg) and asialo-ovine submaxillary mucin (5 μg) was carried out using the universal buffer at the indicated pH.

A further assay deals with FAP colonic tissue. Description: Lectin histochemistry, familial adenomatous polyposis (FAP) colonic tissue. The assay is classed as binding, human. The source says: Full thickness specimens of colonic tissue were obtained from colectomy specimens for familial adenomatous polyposis at Johns Hopkins Hospital, fixed in formalin, and embedded in paraffin for tissue sectioning. The tissue specimens contained normal-appearing flat mucosa familial adenomatous polyposis, or FAP-normal, as well as a polypoid, adenomatious tissue familial adenomatous polyposis, or FAP-abnormal.
(§1) Four micron paraffin embedded tissue sections attached to glass slides were deparaffinized by serial incubations in xylene (twice), absolute ethanol (thrice), 95% ethanol, 70% ethanol, water and finally equilibrated in phosphate buffered saline (PBS), pH 7.0, containing 0.1% bovine serum albumin (BSA) commercially available from Sigma Corp of St. Louis, Mo. The slides were blotted dry adjacent to the tissue sections, and biotinylated lectin was added at a concentration of 10 μg/ml (for ACA) and 20 μg/ml (for PNA) in a quantity sufficient to completely cover the hydrated tissue (100-2001 μl). The lectin was rinsed off after a 30 minute incubation by eight 2-second dips into phosphate buffered saline. The slides were again blotted, and the tissue covered with Streptavidin-horseradish peroxidase (HRP) obtained from Zymed Laboratories, San Francisco, Calif. at a concentration of 10 μg/ml for 30 minutes. The slides were rinsed as mentioned above, and the pigmented reaction product developed by the addition of a freshly prepared chromogen reagent solution prepared within two hours of use as follows.
3,3'-diaminobenzidine was aliqotted at 5 mg/mL in 0.01 M (Tris) tris hydroxy methyl amino methane saline, pH 7.5 and frozen at -70° C. until use. For use, the aliquot was thawed, diluted 1:10 in 0.01 M (Tris) tris hydroxy methyl amino methane saline pH 7.5, and 3.3 μL of 30% H2 O2 were added to each 5 ml. This solution was allowed to stand for 10 min, and 100-200 μl was applied to the tissue sections that had been incubated earlier with biotinylated lectin and Streptavidin-HRP. After 10 min, the slides were rinsed with albumin-free phosphate buffered saline. […]
A second method for scoring tissues was used to survey normal colonic tissues, adenomatous polyps, and cancers. For these studies, individual epithelial "units" were counted as either positive or negative; i.e., each crypt of Lieberkuhn or neoplastic gland was considered an independent scorable unit, and the tissue score was expressed in terms of the percentage of units with any degree of definite labeling as from 1^+ to 4^+. […]
(§2) Therefore, each individual crypt of Lieberkuhn was given a score from 0-4^+, and the labeling was expressed as a "weighted average", or, the sum of scores from 100 crypts, which could range from 0 (all crypts not labeled) to 400 (all 100 crypts maximally labeled). […]

A further assay concerns HNPCC tissues. Description: Lectin histochemistry, HNPCC rectal biopsies. Details: key to Staining (global score 0-3+): 4^+: Maximum labeling of the brown reaction product; 0: No staining of the slide compared to control sections; 1^+: trace or weak staining definitely not seen on control slides; 2+3^+: stronger staining, but definitely less than maximal. The assay is classed as binding, human. The conditions noted are these: listed as ACA; for Weighted Average (0-400): mean ± SEM.
Description: Rectal biopsies were obtained from individuals who were first degree relatives of patients with hereditary nonpolyposis colorectal cancer (HNPCC) as identified by H. T. Lynch, M.D. These patients were the siblings or offspring of index patients who fit the criteria for Lynch Syndrome I or II. See Drzeniek, Z., and Usowska, E. (1979) Arch. Immunol Ther. Exp. 27, 253-262. However, since there is no definitive genetic or phenotypic marker for this familial syndrome, it is not possible to be certain that these patients represent a single homogenous genetic abnormality. The biopsies were fixed in formalin, and embedded in paraffin for tissue sectioning.
as §1, with “follows. […]” for “follows.”
as §2

In assay [4] the test system is human red blood cells (A, B, and O). Description: Hemagglutination. The assay is classed as cell-based. Here is the method:
In the hemagglutination procedure, red blood cells were washed and resuspended to make a 2% suspension in phosphate buffered saline. The lectin solution was serially diluted in microliter plates followed by the addition of the 2% red blood cell suspension. Hemagglutination was observed after 1 hour at room temperature. One hemagglutination unit (HU) is defined as the minimum amount of amaranthin to completely agglutinate cells and is equivalent to a lectin concentration of 2 μg/ml.

In another assay the test system is hog lymphocytes. The settings on record: cited from earlier work.
[5] abbreviates: biotinylated ACA 10 μg/mL or PNA 20 μg/mL.

For amaranthin, the “Labeling of normal colon in the tissue survey” value in assay [1] is given as 1^+. Further, the “Staining (global score 0-3+)” value (in assay [1] (setting [5]); with HNPCC tissues (setting [5])) was 1^+ each time. The “Percent of Epithelial Units Labeled” value in assay [1] (lower half of crypt, mean ± SEM, listed as ACA) is 46±4% and 46%±4%; in assay [1] (upper half of crypt, mean ± SEM, listed as ACA), 7±2% and 7%±2%; in the assay with FAP colonic tissue (flat tissue, mean ± SEM, listed as ACA), 60±7% and 60%±7%; in the assay on FAP colonic tissue (polypoid tissue, mean ± SEM, listed as ACA) it was 83±7% and 83%±7%. Also, the “Weighted Average (0-400)” value came out at 65±33 in assay [1] (sum of scores of 100 epithelial units, mean ± SEM, listed as ACA); 224±76 with FAP colonic tissue (FAP, mean ± SEM, listed as ACA); 203±43 in the assay on HNPCC tissues (HNPCC outliers); 74±70 with HNPCC tissues (HNPCC). Also, the “smallest amount of mucin detected” value in assay [2] came out at 1 mg. Moreover, in assay [3], the “pH at or below which almost no precipitate formed” value is recorded as no more than 3 pH. In addition, the “pH of peak precipitation activity” value in assay [3] is given as 5 pH. In assay [3], the “pH range of significant amaranthin activity” value is 4-9 pH. Also, the “Percent of epithelial glands with bound lectin” value in the assay on FAP colonic tissue (all 28 specimens, mean) is listed as 67±6%. Further, the “agglutination of A, B, O red blood cells, in words” value in assay [4] was “does and No difference was observed”. Also, in assay [4] (2% red blood cell suspension, 1 hour at room temperature), the “minimum amount to completely agglutinate cells (one HU)” value was found to be 2 µg/mL. Also, the “mitogenicity, in words” value with hog lymphocytes is reported as “non-mitogenic”.
